Reference: publication PMC3769273, “The Relationship between Functional Inhibition and Binding for KCa2 Channel Blockers” (PLoS ONE, 2013)

Legend:
KCa2.3 [1] = conditions: KCa2.3, CHO cells, ref Hosseini et al. 2000; read-out: IC50 for inhibition of KCa2 current; cited from earlier work
KCa2.2 [2] = molecular target: T1, KCa2.2 (Rattus norvegicus, UniProt P70604); experiment: cell-based; assay type: cell-based; conditions: for IC50: KCa2.2, standard physiological solution, measured at −20 mV, read-out: IC50 for inhibition of KCa2 current; for common Hill slope of concentration-inhibition curves: KCa2.2 current, standard solution
T1 construct: expressed in transfected cells; host or cells: HEK 293 cells, transient transfection (Lipofectamine 2000) with channel plasmid plus a separate GFP plasmid; Some experiments used stably transfected cells
T1 sequence (P70604 whole entry): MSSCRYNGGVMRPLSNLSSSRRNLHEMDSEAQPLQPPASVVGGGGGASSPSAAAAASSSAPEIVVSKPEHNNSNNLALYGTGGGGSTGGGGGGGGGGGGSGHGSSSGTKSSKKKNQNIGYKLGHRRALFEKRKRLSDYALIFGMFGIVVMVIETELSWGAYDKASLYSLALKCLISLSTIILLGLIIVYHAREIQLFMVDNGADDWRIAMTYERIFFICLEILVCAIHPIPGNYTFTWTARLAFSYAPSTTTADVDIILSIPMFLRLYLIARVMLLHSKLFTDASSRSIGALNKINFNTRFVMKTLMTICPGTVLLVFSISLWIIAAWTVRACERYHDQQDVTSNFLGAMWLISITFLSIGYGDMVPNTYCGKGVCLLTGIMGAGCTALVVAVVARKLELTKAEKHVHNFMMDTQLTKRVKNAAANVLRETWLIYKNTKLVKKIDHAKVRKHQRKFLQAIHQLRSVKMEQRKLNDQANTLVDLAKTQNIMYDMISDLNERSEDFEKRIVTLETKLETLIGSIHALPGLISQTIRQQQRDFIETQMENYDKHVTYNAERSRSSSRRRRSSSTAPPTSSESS
Procedure: For electrophysiology, wild type and stably transfected HEK cells were plated in 35 mm dishes. In most experiments KCa2.2 was transiently expressed in HEK 293 cells. Transient transfection was achieved using Lipofectamine 2000 (Invitrogen) according to the manufacturer's instructions. Briefly, 2 µg channel plasmid and 1 µg QBI (QBiogene), which expresses GFP, was mixed with 3 µg Lipofectamine 2000 and added to each 35 mm dish. GFP expressing cells were identified by epi-fluorescence. Conventional whole cell recordings were made using an EPC9 amplifier controlled by Pulse software (Heka). Data were filtered at 1 kHz and acquired at 5 kHz. Borosilicate glass patch pipettes (2–5 MΩ) were coated with Sylgard resin, fire polished and filled with a solution containing (in mM): KCl 140, HEPES 10, K2HEDTA 5, and either 1.2 CaCl2 (free Ca^2+ = 1 µM) or no added Ca^2+ (free Ca^2+ <10 nM). The pH was adjusted to 7.2 with 1 M KOH. Free Ca^2+ concentrations were calculated using the REACT program (G.L. Smith, University of Glasgow) and stability constants for HEDTA published in Martell and Smith. Except where stated the extracellular solution was the same as the incubation medium used in binding experiments. As with binding studies all experiments were performed at room temperature (20–25°C).
Routinely, cells were held at −80 mV and 100 ms test pulses applied to potentials between −120 mV and 40 mV. […] In order to avoid contamination of KCa2 current by the endogenous currents, inhibition by blocking agents was measured at −20 mV.
Concentration-inhibition curves were fitted by a variant of the Hill equation with the form: [drawing 4] where y is the current in the presence of blocker at concentration [B] expressed as a percentage of control and n is the Hill coefficient.

KCa2.3 [3] = molecular target: T2, KCa2.3 (Rattus norvegicus, UniProt P70605); experiment: Competition binding: inhibition of 125I-apamin binding to HEK 293 cells expressing KCa2.3; conditions: for Ki: KCa2.3, Cheng-Prussoff correction, read-out: K i for displacement of mono-iodoapamin
T2 construct: expressed in transfected cells; host or cells: HEK 293 cell line stably expressing KCa2.3, made in house by zeocin selection
T2 sequence (P70605 whole entry): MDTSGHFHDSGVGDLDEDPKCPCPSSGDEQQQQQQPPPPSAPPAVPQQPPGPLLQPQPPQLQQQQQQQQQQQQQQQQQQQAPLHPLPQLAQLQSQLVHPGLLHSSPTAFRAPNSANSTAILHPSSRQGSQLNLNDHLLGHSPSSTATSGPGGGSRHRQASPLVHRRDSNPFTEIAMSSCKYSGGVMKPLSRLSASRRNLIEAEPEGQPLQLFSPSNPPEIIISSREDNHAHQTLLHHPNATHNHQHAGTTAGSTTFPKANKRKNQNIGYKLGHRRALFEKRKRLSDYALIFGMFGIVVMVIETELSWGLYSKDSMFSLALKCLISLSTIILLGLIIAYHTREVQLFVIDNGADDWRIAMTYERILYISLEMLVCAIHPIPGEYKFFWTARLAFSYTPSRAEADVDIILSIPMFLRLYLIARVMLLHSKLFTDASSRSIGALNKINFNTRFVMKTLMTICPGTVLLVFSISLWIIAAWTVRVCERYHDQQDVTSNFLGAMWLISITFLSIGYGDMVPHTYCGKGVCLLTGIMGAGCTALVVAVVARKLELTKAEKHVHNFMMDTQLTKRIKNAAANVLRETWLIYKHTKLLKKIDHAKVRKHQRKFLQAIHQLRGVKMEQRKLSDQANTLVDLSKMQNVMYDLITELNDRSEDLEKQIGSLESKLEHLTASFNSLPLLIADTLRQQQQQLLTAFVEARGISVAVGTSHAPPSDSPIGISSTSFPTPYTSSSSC
Procedure: (§1) Radio-ligand binding studies were conducted using HEK 293 cell lines stably expressing KCa2.2 or KCa2.3. The cells were cultured in DMEM supplemented with 10% foetal calf serum, 2 mM L-glutamine, penicillin (200 units ml^–1) and streptomycin (100 µg ml^–1) in T500 flasks (Nunc). When confluent, these cells were harvested mechanically (to avoid the use of trypsin) into Ca^2+/Mg^2+ free HBSS. The cells were centrifuged at 50 g for 2 min, resuspended in DMEM at a density of approximately 2.5×10^6 cells ml^–1 and stored at 4°C until used (<2 hr). Cell density was estimated using a haemocytometer.
(§2) Routinely, incubations were performed in a total volume of 250 µl comprising 100 µl cell suspension (∼250000 cells), 100 µl ^125I-apamin and 50 µl displacing agent or incubation medium. The incubation medium contained (in mM) NaCl 140, KCl 5, MgCl2 1, CaCl2 2, glucose 10 and HEPES 10. The pH was adjusted to 7.4 with 1 M NaOH. Non-specific binding was estimated in the presence of 100 nM UCL 1848, a potent KCa2 channel blocker which causes maximal inhibition at this concentration (see Hosseini et al., Benton et al.[13]). Measurements for each test were performed in triplicate. Separation of cells from unbound ligand was achieved by rapid filtration through Whatman GF/B filters pre-treated with 0.3% v/v polyethyleneimine using a Skatron AS harvester. The quantity of labelled apamin bound was measured using a calibrated γ counter (LKB 1275) and expressed as fmol label/10^6 cells. All binding experiments were conducted at room temperature (20–25°C).
(§3) The ability of test compounds to inhibit ^125I-apamin binding was measured in the presence of 20–60 pM ^125I-apamin with or without the test compound. In every experiment each concentration of inhibitor was tested in triplicate and the data presented represents the mean of at least two separate experiments. Inhibition curves were fitted by a variant of Hill-Langmuir equation: [drawing 3] where B I is the specific binding of label in the presence of inhibitor as a percentage of the binding in its absence. Estimates of K i were obtained using the Cheng-Prussoff correction taking estimates of K L from the saturation binding studies.

KCa2.2 [4] = molecular target: T1, KCa2.2; experiment: Competition binding: inhibition of 125I-apamin binding to HEK 293 cells expressing KCa2.2; conditions: for Ki: KCa2.2, Cheng-Prussoff correction, read-out: K i for displacement of mono-iodoapamin
Procedure: as §1, §2, §3

Compound	IC50 (KCa2.3 [1])	IC50 (KCa2.2 [2])	common Hill slope of concentration-inhibition curves (KCa2.2 [2])	inhibition of total 125I-apamin binding (KCa2.3 [3]; 100 nM UCL 1848, 30 pM 125I-apamin, KCa2.3 expressing HEK 293 cells)	Ki (KCa2.3 [3])	inhibition of total 125I-apamin binding (KCa2.2 [4]; 100 nM UCL 1848, 30 pM 125I-apamin, KCa2.2 expressing HEK 293 cells)	Ki (KCa2.2 [4])
8,14-diaza-1,7(1, 4)-diquinolinacyclotetradecaphane [UCL 1848]	2.1 ± 0.3 nM	0.125 ± 0.0025 nM	0.7±0.04	almost completely inhibited	0.652 ± 0.18 nM	almost completely inhibited	0.095 ± 0.0017 nM
Cc1cc(N)c2ccccc2[n+]1CCCCCCCCCC[n+]1c(C)cc(N)c2ccccc21 [Dequalinium, dequalinium]	920 ± 140 nM	420 ± 99 nM	0.7±0.04	–	865 ± 160 nM	–	977 ± 165 nM
CC[N+](CC)(CC)CCOc1cccc(OCC[N+](CC)(CC)CC)c1OCC[N+](CC)(CC)CC [Gallamine, gallamine]	98000 ± 700 nM	7000 ± 800 nM	0.7±0.04	–	71000 ± 8000 nM	–	26000 ± 5000 nM
c1cc2cc(c1)C[n+]1ccc(c3ccccc31)NCc1ccc(cc1)CNc1cc[n+](c3ccccc13)C2 [UCL1684, 6,10–diaza-3(1,3),8(1,4)-dibenzena-1,5(1,4)- diquinolinacyclodecaphane]	5.8 ± 0.3 nM	0.53 ± 0.008 nM	0.7±0.04	–	7.7 ± 1.6 nM	–	1.01 ± 0.022 nM
